Measurements taken from patent US4359466A, “Guanidine compounds” (Smith Kline & French Laboratories Limited, priority 1980, dated 1982).

Test system: histamine H2 -receptors
Experiment: inhibition of histamine-stimulated secretion of gastric acid from the lumen-perfused stomachs of rats anaesthetised with urethane
Assay type: in vivo
Details: i.v., lumen-perfused stomach of urethane-anaesthetised rats

N=C(N)Nc1nc(CSCCNc2[nH]ccc2[N+](=O)[O-])cs1 [Example 1, 2-[2-(2-Guanidino-4-thiazolylmethylthio)ethylamino]-3-nitropyrrole]
dose causing 50% inhibition of maximal acid secretion: less than 0.1 micromole kg^-1
